Data set [1] concerns Atoh1-ER-DsRed fusion protein. The data set is described as follows: Nuclear translocalization assay (DsRed fluorescence of isolated nuclei). To be noted: for DsRed fluorescence in the nuclear fraction: HEK cells transfected with CMV-Atoh1-ER-DsRed, p<0.05; for localization of Atoh1-ER-DsRed to the nucleus: HEK cells, graded doses; for time to complete cytoplasmic localization of the fusion protein after removal from the culture media: removal of 4OHT/tamoxifen from culture media. The data set is classed as cell-based. The method, then:
Constructs were generated to express inducible Atoh1-ER fusion proteins (FIG. 1).
HEK cells were cultured until 50% confluent in 6-well culture dishes (type) then subjected to transfection using 3:1 target DNA to Fugene 6 Transfection Reagent (ROCHE). […] Cells were then processed for cytosolic and nuclear fractionation (BioVision). The isolated nuclear fraction collected from each of 5 sample wells per condition was mounted to a coverslip and average pixel density from 5 regions of interest (206.5×165.2 pixel at 20× magnification) was measured with a Cy3 ([…]) filter on a Zeiss epifluorescent microscope using MetaMorph software.

The subject of data set [2] is Atoh1-ER-DsRed fusion protein. The data set is described as follows: Nuclear localization in electroporated cochlear spheres. The data set is classed as cell-based, mice. From the text:
(DAPI=blue; DsRed fluorescence=red). […] Yellow box highlights optimal conditions (+=nuclear localization in […] of cells; −/+≈50% nuclear localization; −=>0.10% nuclear localization.
Cochlear derived progenitor cells were generated and floating aggregates (cochlear spheres) propagated as previously described (Oshima et al., Journal of the Association for Research in Otolaryngology, 2007. 8(1): 18-31) with the following modifications. Cochleas were isolated from litters of P0-P3 ROSA26-GFP mice, the organs of Corti were dissected, pooled, trypsinized, triturated, and centrifuged. The pellet was re-suspended in SFM, filtered through a […] cell strainer, and cultured for 5 days in this same media supplemented with growth factors (10 ng/ml of FGF, IGF, EGF, Heparin sulfate). Floating aggregates were collected, centrifuged, triturated using a 100 μl pipette, re-suspended in 300 μl Optimem, and electroporated (8 pulses; 25 V; duration, 50 ms; interval, 100 ms with 2 mg/ml DNA in water, and incubated in 3:1 Fugene 6 overnight) using 50 μg of plasmid DNA. […] Finally, spheres from each of these groups were centrifuged, adhered to glass coverslips by incubation for 2-4 hours at 37° C. on glass coverslips coated with 1:1 poly-lysine/polyornithine, fixed in 4% paraformaldehyde for 20 minutes, washed three times in PBS, and stored at 4° C. for later analysis.

The test system of data set [3] is Atoh1 5′ enhancer/promoter region. Put plainly: Luciferase assay of Atoh1 enhancer/promoter binding. The data set is classed as cell-based. Particulars: HEK cells stably transfected with Atoh1enhancer-luciferase and transiently with Atoh1-ER-DsRed; 72 hrs, increasing doses. How it is done:
The stably transfected HEK cells were transiently transfected with either the cmv.Atoh1-ER-DsRed construct or a cmv.DsRed-ER control construct. […] All cells were also co-transfected with Renilla transfection controls.
The Atoh1 5′ enhancer/promoter region (Helms, Abney et al. 2000) was cloned into the MCS of the pGL3-Promoter Luciferase Reporter Vector (Promega), and was stably expressed on a HEK cell line using selection to […]. These cells were grown until 80% confluent on 6-well plates, and then transiently transfected with either the cmv.Atoh1 control vector, the cmv.Atoh1-ER-DsRed construct, or a cmv.DsRed-ER negative control construct using 3:1 target DNA to Fugene 6 Transfection Reagent. All cells were also co-transfected with Renilla transfection controls. […] Firefly luciferase activity was measured in a manual TD-20/20 Luminometer (Turner Designs).

The test system of the next data set is Atoh1 mRNA. Put plainly: Atoh1 mRNA expression by RT-PCR and qPCR. The data set is classed as cell-based. Particulars: HEK cells transiently transfected with Atoh1-ER-DsRed; different doses. The method, then: Transiently transfected HEK cells were incubated with different doses of 4OHT.
Next, total RNA was extracted from the cells by adding 1 ml Trizol reagent (Invitrogen) to each well for 5 min, cells were scraped into a 1.5 ml tube (1 tube/well), incubated with […] chloroform (in hood) for 2 min centrifuged for 20 min at 12,000 g at 4° C., supernatant was collected in a new 1.5 ml tube, incubated with 1:1 equivalent volume of 2-propanol equal volume to supernatant, and centrifuged through the RNeasy mini kit columns at 8000 g for 15 sec. RNA was eluted from the column by adding […] RW1, centrifuging the column at 8000 g 15 s, adding […] washes of RPE2 and re-centrifuging at 8000 g 15 s, adding one spin to dry membrane (10,000 g, 1 min), and eluting the RNA by adding […] RNAse free water into new 1.5 ml tube and centrifuging a final time at 8000 g for 15 s. […]
For quantitative PCR (qPCR) analysis, 300 μL of qPCR Master Mix (Invitrogen) was added to a PCR tube with 300 μL dH2O, which was then divided into 5 tubes (120 μL each). […] Quantitative PCR was performed and the amount of RNA was determined Delta delta Ct measurements were calculated for each treatment group, and then were normalized to fold change from groups incubated in the absence of tamoxifen. […]

The subject of another data set is Atoh1 protein. The data set is described as follows: Western blot analysis of Atoh1 protein. The data set is classed as cell-based. Particulars: transiently transfected HEK cells; different doses for 72 hr. An excerpt: Whole cell protein was collected and processed for Western blot analysis. Positive control samples were transfected with a flag-tagged Atoh1 construct under control of a cmv promoter (flagAtoh1) and negative control samples were transfected with the DsRedER construct.
Control samples were similarly transfected with either DsRed-ER (negative control) or a positive control vector (cmv.flagAtoh1). Cells were lysed, the whole cell protein was collected and processed for Western blot analysis using either anti-Atoh1polyclonal antibody (Developmental Studies Hybridoma Bank) or a polyclonal anti-b-actin antibody (Sigma).
Background: A western blot detects proteins with antibodies after separation by electrophoresis.

The subject of the next data set is myosin 7a. The data set is described as follows: Myosin 7a immunolabeling in transfected HEI OC1 cells. The data set is classed as cell-based. How it is done:
To test this, the expression of myosin 7a, which is a downstream target of Atoh1 signaling, was measured in HEI OC1 cells transfected with the Atoh1-ER-DsRed construct.

Data set [4] has as its system alpha and beta isoforms of the estrogen receptor. To be noted: cited from earlier work.
Another data set deals with organs of Corti. The data set is described as follows: Organ of Corti explants electroporated with the construct. The data set is classed as cell-based, mice. Particulars: 1 μM tamoxifen. An excerpt:
The construct was electroporated into neonatal organs of Corti isolated from transgenic mouse pups that express GFP under control of the 5′ Atoh1 enhancer/promoter.

Another data set relates to Atoh1 promoter/enhancer. Put plainly: Comparison of constructs (Atoh1 promoter/enhancer binding, mRNA transcription, protein translation). The data set is classed as cell-based. An excerpt:
FIG. 1A-FIG. 1E are schematics depicting constructs used to generate an inducible Atoh1 fusion protein. FIG. 1A depicts the construct termed Flag-Atoh1-ER-DsRed. In order to measure the translocation of the fusion protein between the cytoplasm and […], a construct was engineered to include the DsRed transgene. To aid in the detection of Atoh1 (Atonal homolog 1), several experimental constructs were engineered to include one or two consecutive flag-tagged sequences (Vallier, Mancip et al. 2001). To obtain the tamoxifen sensitive Atoh1 construct, PCR cloning primers were designed so that 1) an EcoRI site was placed on the 5′ end and a Kozac sequence (CACC) was placed upstream of the Atoh1 start codon; 2) the Atoh1 stop codon (TAG) was deleted; 3) the flag tagged Atoh1 sequence was linked to an Estrogen Receptor (ER) sequence by the sequence […] (SEQ ID NO: 1) encoding a polypeptide linker; 4) the ER stop codon (TAG) was deleted; 5) the ER sequence was linked to a DsRed sequence by the sequence […] (SEQ ID NO: 2) encoding a polypeptide linker; and 6) a Not I site was included on the 3′ end. The linker sequences were designed to translate into multiple proline sequences, which provide an increased degree of freedom for the fusion protein subunits. […]

Entries after “also recorded” stand apart in the source; their conditions may differ. Bounds are passed on as bounds.

As for `CC/C(=C(\c1ccc(O)cc1)c1ccc(OCCN(C)C)cc1)c1ccccc1` [4OHT], the “DsRed fluorescence in the nuclear fraction” value in data set [1] (1 nM 4OHT for 72 hrs) was 848.0+/−29.33 au. For the same compound, in data set [1] (1 mM 4OHT for 72 hrs), the “DsRed fluorescence in the nuclear fraction” value was 3,200.9+/−156.95 au. In addition, in [1], the “localization of Atoh1-ER-DsRed to the nucleus” value is “dose-dependent manner” and the “time to complete cytoplasmic localization of the fusion protein after removal from the culture media” value is recorded as not above 2 weeks. Also, the “nuclear localization of the fusion protein” value in data set [2] (cochlear spheres from ROSA26-GFP mice, 1 nM, after 48 hrs) was “punctate nuclear localization”. The compound further registered a minimum effective dose in data set [2] (for 2-7 days (FIG. 3)) of 1 nM. In addition, the “binding to / activation of the enhancer/promoter region of the Atoh1 gene” value in data set [3] is on record as “dose-dependent increase; also recorded: induced activation of the Atoh1 enhancer region”. The “Atoh1 mRNA expression” value in the data set with Atoh1 mRNA is on record as “upregulates the expression of Atoh1 in a dose-dependent manner; also recorded: increase in Atoh1 mRNA expression”. Also, in the data set on Atoh1 protein, the Atoh1 protein levels entry was “increased the concentration of cytosolic Atoh1 protein in a dose-dependent manner; also recorded: increase in Atoh1 protein levels”. Moreover, in the data set with myosin 7a (HEI OC1 cells transfected with Atoh1-ER-DsRed, differentiating conditions (39° C.), 1 mM 4OHT for three days, p<0.001 vs vehicle), the “myosin 7a labeling” value worked out at 79%.
Turning to `C[C@]12CC[C@@H]3c4ccc(O)cc4CC[C@H]3[C@@H]1CC[C@@H]2O` [17-beta-estradiol], the “preference of binding to estrogen receptor isoforms” value (shortened to “preference of binding”) in [4] is given as “binds equally well to both receptors”.
As to `O=c1c(O)c(-c2ccc(O)c(O)c2)oc2cc(O)cc(O)c12` [Quercetin], the “preference of binding” value in [4] is “selectively binds to the estrogen receptor beta (ERβ)”.
With `O=C(c1ccc(OCCN2CCCCC2)cc1)c1c(-c2ccc(O)cc2)sc2cc(O)ccc12` [raloxifene], the “preference of binding” value in data set [4] is reported as “bind preferentially to the alpha receptor”.
Take `CC/C(=C(\c1ccccc1)c1ccc(OCCN(C)C)cc1)c1ccccc1` [tamoxifen]: the “DsRed fluorescence against increasing Tamoxifen concentration” value in data set [1] (1 μM) is “increased fluorescence compared to higher (100 μM) and lower doses (1 nM)”. In addition, in data set [1], the “localization of Atoh1-ER-DsRed to the nucleus” value was “dose-dependent localization” and the “time to complete cytoplasmic localization of the fusion protein after removal from the culture media” value was not above 2 weeks. The minimum effective dose in data set [1] (for 2-7 days, HEK cells (FIG. 2)) amounted to 1 nM. For the same compound, the “binding to / activation of the enhancer/promoter region of the Atoh1 gene” value in data set [3] is given as “dose-dependent increase in binding”. Moreover, the “Atoh1 mRNA expression” value in the data set with Atoh1 mRNA is recorded as “increased the expression of Atoh1 in a dose-dependent manner”. In addition, in the data set on myosin 7a (OC1 cells transfected with Atoh1-ER-DsRed, 3 days in differentiating conditions (39° C.)), the “myosin 7a positive cells within the spheres” value was “significant increase”. In the data set with organs of Corti, the “hair cells in electroporated organs of Corti” value is reported as “supernumerary hair cells”.
For the compound “Flag-Atoh1-ER: construct encoding a flag-tagged Atoh1-ER fusion protein without DsRed (SEQ ID NO: 16)”, in the data set with Atoh1 promoter/enhancer, the “Atoh1 promoter/enhancer binding, Atoh1 mRNA transcription and Atoh1 protein translation compared with the flag-Atoh1-ER-DsRed construct” value is “on average higher than, but not significantly different from”.

These data come from US20140134136A1, “COMPOSITIONS AND METHODS FOR AUDITORY THERAPY” (MASSACHUSETTS EYE AND EAR INFIRMARY, priority 2012, published 2014).
